The results in this text go back to patent US9969752B2, “Inhibitors of HIF prolyl hydroxylase” (MERCK SHARP & DOHME CORP., priority 2014, dated 2018).

pIC50: −log10 of the molar value.

One test deals with T1, Human HIF-PHD2 (Homo sapiens, UniProt Q9GZT9).
T1 construct: FLAG-tagged full length PHD2 expressed in and purified from baculovirus-infected Sf9 cells; FLAG; made in house; host or cells: baculovirus-infected Sf9 cells
T1 sequence (Q9GZT9 whole entry): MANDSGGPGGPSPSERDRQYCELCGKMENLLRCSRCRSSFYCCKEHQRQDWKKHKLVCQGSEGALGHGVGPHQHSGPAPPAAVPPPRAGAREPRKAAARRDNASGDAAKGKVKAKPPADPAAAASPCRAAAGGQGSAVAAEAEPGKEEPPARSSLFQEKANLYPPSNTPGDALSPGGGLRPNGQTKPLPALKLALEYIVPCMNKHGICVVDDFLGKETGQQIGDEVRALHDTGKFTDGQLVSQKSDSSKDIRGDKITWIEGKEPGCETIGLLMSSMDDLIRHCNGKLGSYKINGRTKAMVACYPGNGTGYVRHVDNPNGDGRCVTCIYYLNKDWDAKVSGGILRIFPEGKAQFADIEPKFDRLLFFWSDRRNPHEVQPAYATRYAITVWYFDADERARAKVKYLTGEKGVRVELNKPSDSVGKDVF
Description: Inhibition of the hydroxylation of a HIF peptide by PHD2 (time resolved fluorescence, 384-well). The note with it: FLAG-tagged full length PHD2; 0.2 μM 2-oxoglutarate, 0.5 μM HIF-1α peptide; 45 minutes at room temperature; read-out: Human HIF-PHD2 IC50. It is filed as biochemical. The protocol: To each well of a 384-well plate, 1 μL of test compounds in DMSO (final concentration ranging from 0.3 nM to 10 uM) were added into 20 μl of assay buffer (50 mM Tris pH 7.4/0.01% Tween-20/0.1 mg/ml bovine serum albumin/10 μM ferrous sulfate/1 mM sodium ascorbate/20 μg/ml catalase) containing 0.15 μg/ml FLAG-tagged full length PHD2 expressed in and purified from baculovirus-infected Sf9 cells. After a 5 min preincubation at room temperature, the enzymatic reactions were initiated by the addition of 4 μL of substrates {final concentrations of 0.2 μM 2-oxoglutarate and 0.5 μM HIF-1α peptide biotinyl-[…] […] After incubation for 45 minutes at room temperature, the reactions were terminated by the addition of a 25 μL quench/detection mix to a final concentration of 1 mM ortho-phenanthroline, 0.1 mM EDTA, 0.5 nM anti-(His)6 LANCE reagent (Perkin-Elmer Life Sciences), 100 nM AF647-labeled streptavidin (Invitrogen), and 2 μg/ml (His)6-VHL complex {S. Tan Protein Expr. Purif.
Regarding `O=C(O)CNC(=O)c1c(O)c2c(OC(F)(F)F)ccc3c2n(c1=O)CC(c1ccc(C(F)(F)F)cc1)O3` (single isomer, unassigned) [Example 86, 2-(7-Hydroxy-5-oxo-8-(trifluoromethoxy)-2-(4-(trifluoromethyl)phenyl)-3,5-dihydro-2H-[1,4]oxazino[2,3,4-ij]quinoline-6-carboxamido)acetic acid], the pIC50 is 7.85.

For the compound `N#Cc1ccc(C2Cn3c(=O)c(C(=O)NCC(=O)O)c(O)c4c(OC(F)(F)F)ccc(c43)O2)cc1` (single isomer, unassigned) [Example 88, 2-(2-(4-Cyanophenyl)-7-hydroxy-5-oxo-8-(trifluoromethoxy)-3,5-dihydro-2H-[1,4]oxazino[2,3,4-ij]quinoline-6-carboxamido)acetic acid], the pIC50 is 8.07.

In the case of `O=C(O)CNC(=O)c1c(O)c2cccc3c2n(c1=O)C(c1ccccc1)CC3` (single isomer, unassigned) [Example 130, 2-(1-Hydroxy-3-oxo-5-phenyl-3,5,6,7-tetrahydropyrido[3,2,1-ij]quinoline-2-carboxamido)acetic acid], the pIC50 is 7.74.

On to `O=C(O)CNC(=O)c1c(O)c2cccc3c2n(c1=O)C(Cc1ccc(C(F)(F)F)cc1)CO3` (centres unmarked) [Example 3, 2-(7-Hydroxy-5-oxo-3-(4-(trifluoromethyl)benzyl)-3,5-dihydro-2H-[1,4]oxazino[2,3,4-ij]quinoline-6-carboxamido)acetic acid], for which the pIC50 was 7.68.

As for `N#Cc1cc2c3c(c1)c(O)c(C(=O)NCC(=O)O)c(=O)n3C(Cc1ccc(C(F)(F)F)cc1)CO2` (centres unmarked) [Example 4, 2-(9-Cyano-7-hydroxy-5-oxo-3-(4-(trifluoromethyl)benzyl)-3,5-dihydro-2H-[1,4]oxazino[2,3,4-ij]quinoline-6-carboxamido)acetic acid], the pIC50 is 8.52.

On to `O=C(O)CNC(=O)c1c(O)c2cc(Br)cc3c2n(c1=O)C(Cc1ccc(C(F)(F)F)cc1)CO3` (centres unmarked) [Example 5, 2-(9-Bromo-7-hydroxy-5-oxo-3-(4-(trifluoromethyl)benzyl)-3,5-dihydro-2H-[1,4]oxazino[2,3,4-ij]quinoline-6-carboxamido)acetic acid], for which the pIC50 is 7.74.

On to `CS(=O)(=O)c1cc2c3c(c1)c(O)c(C(=O)NCC(=O)O)c(=O)n3C(Cc1ccc(C(F)(F)F)cc1)CO2` (centres unmarked) [Example 6, 2-(7-Hydroxy-9-(methylsulfonyl)-5-oxo-3-(4-(trifluoromethyl)benzyl)-3,5-dihydro-2H-[1,4]oxazino[2,3,4-ij]quinoline-6-carboxamido)acetic acid], for which the pIC50 is 8.77.

For `Cc1cc2c3c(c1)c(O)c(C(=O)NCC(=O)O)c(=O)n3C(Cc1ccc(C(F)(F)F)cc1)CO2` (centres unmarked) [Example 7, 2-(7-hydroxy-9-methyl-5-oxo-3-(4-(trifluoromethyl)benzyl)-3,5-dihydro-2H-[1,4]oxazino[2,3,4-ij]quinoline-6-carboxamido)acetic acid], the pIC50 was 7.43.

Consider `CC(O)(CO)c1cc2c3c(c1)c(O)c(C(=O)NCC(=O)O)c(=O)n3C(Cc1ccc(C(F)(F)F)cc1)CO2` (centres unmarked) [Example 8, 2-(9-(1,2-Dihydroxypropan-2-yl)-7-hydroxy-5-oxo-3-(4-(trifluoromethyl)benzyl)-3,5-dihydro-2H-[1,4]oxazino[2,3,4-ij]quinoline-6-carboxamido)acetic acid], for which the pIC50 is 7.52.

As for `O=C(O)CNC(=O)c1c(O)c2cccc3c2n(c1=O)CC(c1ccc(C(F)(F)F)cc1)C3` (centres unmarked) [Example 9, 2-(1-Hydroxy-3-oxo-6-(4-(trifluoromethyl)phenyl)-3,5,6,7-tetrahydropyrido[3,2,1-ij]quinoline-2-carboxamido)acetic acid], the pIC50 is 8.14.

In the case of `O=C(O)CNC(=O)c1c(O)c2cccc3c2n(c1=O)CC(c1ccc(C(F)(F)F)cc1)O3` (centres unmarked) [Example 10, 2-(7-Hydroxy-5-oxo-2-(4-(trifluoromethyl)phenyl)-3,5-dihydro-2H-[1,4]oxazino[2,3,4-ij]quinoline-6-carboxamido)acetic acid], the pIC50 is 8.19.

`O=C(O)CNC(=O)c1c(O)c2c(Br)ccc3c2n(c1=O)CC(c1ccc(C(F)(F)F)cc1)O3` (centres unmarked) [Example 11, 2-(8-Bromo-7-hydroxy-5-oxo-2-(4-(trifluoromethyl)phenyl)-3,5-dihydro-2H-[1,4]oxazino[2,3,4-ij]quinoline-6-carboxamido)acetic acid]: the pIC50 was 8.59.

As to `CS(=O)(=O)c1ccc2c3c1c(O)c(C(=O)NCC(=O)O)c(=O)n3CC(c1ccc(C(F)(F)F)cc1)O2` (centres unmarked) [Example 12, 2-(7-Hydroxy-8-(methylsulfonyl)-5-oxo-2-(4-(trifluoromethyl)phenyl)-3,5-dihydro-2H-[1,4]oxazino[2,3,4-ij]quinoline-6-carboxamido)acetic acid], the pIC50 is 7.72.

In the case of `N#Cc1ccc2c3c1c(O)c(C(=O)NCC(=O)O)c(=O)n3CC(c1ccc(C(F)(F)F)cc1)O2` (centres unmarked) [Example 13, 2-(8-Cyano-7-hydroxy-5-oxo-2-(4-(trifluoromethyl)phenyl)-3,5-dihydro-2H-[1,4]oxazino[2,3,4-ij]quinoline-6-carboxamido)acetic acid], the pIC50 is 9.00.

On to `O=C(O)CNC(=O)c1c(O)c2cc(Br)cc3c2n(c1=O)CC(c1ccc(C(F)(F)F)cc1)O3` (centres unmarked) [Example 16, 2-(9-Bromo-7-hydroxy-5-oxo-2-(4-(trifluoromethyl)phenyl)-3,5-dihydro-2H-[1,4]oxazino[2,3,4-ij]quinoline-6-carboxamido)acetic acid], for which the pIC50 was 8.36.

With `Cc1cc2c3c(c1)c(O)c(C(=O)NCC(=O)O)c(=O)n3CC(c1ccc(C(F)(F)F)cc1)O2` (centres unmarked) [Example 19, 2-(7-Hydroxy-9-methyl-5-oxo-2-(4-(trifluoromethyl)phenyl)-3,5-dihydro-2H-[1,4]oxazino[2,3,4-ij]quinoline-6-carboxamido)acetic acid], the pIC50 was 8.25.

Turning to `O=C(O)CNC(=O)c1c(O)c2ccc(Br)c3c2n(c1=O)CC(c1ccc(C(F)(F)F)cc1)O3` (centres unmarked) [Example 22, 2-(10-Bromo-7-hydroxy-5-oxo-2-(4-(trifluoromethyl)phenyl)-3,5-dihydro-2H-[1,4]oxazino[2,3,4-ij]quinoline-6-carboxamido)acetic acid], the pIC50 is 8.64.

The test is the same for the next values; noted with them: FLAG-tagged full length PHD2; 0.2 μM 2-oxoglutarate, 0.5 μM HIF-1α peptide; 45 minutes at room temperature; read-out: MS m/z (M + 1)+ and human HIF-PHD2 IC50.
For the compound `N#Cc1ccc(C2Cn3c(=O)c(C(=O)NCC(=O)O)c(O)c4ccc(C(F)(F)F)c(c43)O2)cc1` (single isomer, unassigned) [Example 78, 2-(2-(4-cyanophenyl)-7-hydroxy-10-(trifluoromethyl)-3,5-dihydro-2H-[1,4]oxazino[2,3,4-ij]quinoline-6-carboxamido)acetic acid], the pIC50 was 8.10.

Turning to `O=C(O)CNC(=O)c1c(O)c2c(OC(F)(F)F)ccc3c2n(c1=O)CC(c1ccc(C(F)(F)F)cc1)O3` (single isomer, unassigned) [Example 87, 2-(7-hydroxy-5-oxo-8-(trifluoromethoxy)-2-(4-(trifluoromethyl)phenyl)-3,5-dihydro-2H-[1,4]oxazino[2,3,4-ij]quinoline-6-carboxamido)acetic acid], the pIC50 was 7.77.

As for `N#Cc1ccc(C2Cn3c(=O)c(C(=O)NCC(=O)O)c(O)c4c(OC(F)(F)F)ccc(c43)O2)cc1` (single isomer, unassigned) [Example 89, 2-(2-(4-cyanophenyl)-7-hydroxy-5-oxo-8-(trifluoromethoxy)-3,5-dihydro-2H-[1,4]oxazino[2,3,4-ij]quinoline-6-carboxamido)acetic acid], the pIC50 is 7.47.
